Our source for the EC50 values is patent US20150087673A1, “METHODS FOR USING AND BIOMARKERS FOR AMPK-ACTIVATING COMPOUNDS” (RIGEL PHARMACEUTICALS, INC., priority 2013, published 2015).

As usually defined, the EC50 is the concentration that produces a half-maximal response.

The assay has as its system AMPK. The assay can be described thus: AMPK activation assay (enzyme-linked immunosorbent assay). It is filed as cell-based. As to the method:
Compounds were assayed for their ability to activate AMPK using an enzyme-linked immunosorbent assay. Reagents and procedures for measuring AMPK activation are well known and kits for AMPK activation assays are commercially available.
In turn, `COc1ccc(CN2CCC(NC(=O)c3ccc(C(=O)N4CCC(C(=O)c5ccc(F)cc5F)CC4)cn3)CC2)cc1` [Compound 331, 5-(4-(2,4-difluorobenzoyl)piperidine-1-carbonyl)-N-(1-(4-methoxybenzyl)piperidin-4-yl) picolinamide] came in with an EC50 of less than 500 nM.

As to `Cc1cccc(Oc2ccc(NC(=O)c3ccc(C(=O)N4CCN(Cc5ccc(F)cc5)CC4)cn3)cc2)c1` [Compound 58, 5-(4-(4-fluorobenzyl)piperazine-1-carbonyl)-N-(4-(3-methylphenoxy)phenyl)picolinamide], the EC50 is less than 500 nM. In the case of `N#Cc1ccc(CN2CCC(NC(=O)c3ccc(C(=O)N4CCC(Cc5ccccc5)CC4)cn3)CC2)cc1` [Compound 124, 5-(4-benzylpiperidine-1-carbonyl)-N-(1-(4-cyanobenzyl)piperidin-4-yl)picolinamide] it was less than 500 nM; in that of `O=C(NC1CCN(Cc2ccccc2)CC1)c1ccc(Nc2cccc(Oc3ccccc3)c2)cn1` [Compound 112, N-(1-benzylpiperidin-4-yl)-5-(3-phenoxyphenylamino)picolinamide], 1000 to 5000 nM; in that of `N#Cc1ccc(CNC(=O)c2ccc(NC(=O)c3ccc(C(=O)N4CCN(Cc5ccc(F)cc5)CC4)cn3)cc2)cc1` [Compound 47, N-(4-(4-cyanobenzylcarbamoyl)phenyl)-5-(4-(4-fluorobenzyl)piperazine-1-carbonyl)picolinamide], less than 500 nM. As for `N#Cc1ccc(CN2CCC(NC(=O)c3ccc(C(=O)N4CCC(Oc5ccc(F)cc5F)CC4)nc3)CC2)cc1` [Compound 345, N-(1-(4-cyanobenzyl)piperidin-4-yl)-6-(4-(2,4-difluorophenoxy)piperidine-1-carbonyl)nicotinamide], the EC50 is less than 500 nM. In the case of `N#Cc1ccc(CN2CCC(NC(=O)c3ccc(N4CCC(Oc5ccc(C(F)(F)F)cc5)CC4)cn3)CC2)cc1` [Compound 301, N-(1-(4-cyanobenzyl)piperidin-4-yl)-5-(4-(4-(trifluoromethyl)phenoxy)piperidin-1-yl)picolinamide] it was less than 500 nM. The figure for `N#Cc1ccc(-c2ccc(Nc3ccc(C(=O)NC4CCN(Cc5ccccc5)CC4)nc3)cc2)cc1` [Compound 119, N-(1-benzylpiperidin-4-yl)-5-(4′-cyanobiphenyl-4-ylamino)picolinamide] is 1000 to 5000 nM. In the case of `N#Cc1ccc(CN2CCC(NC(=O)c3ccc(C(=O)N4CCC(C(=O)c5ccc(N6CCCC6)cc5)CC4)nc3)CC2)cc1` [Compound 377, N-(1-(4-cyanobenzyl)piperidin-4-yl)-6-(4-(4-(pyrrolidin-1-yl)benzoyl)piperidine-1-carbonyl)nicotinamide] it was less than 500 nM; in that of `COc1ccc(OC2CCN(C(=O)c3ccc(C(=O)NC4CCN(Cc5ccc(F)cc5)CC4)nc3)CC2)cc1` [Compound 183, N-(1-(4-fluorobenzyl)piperidin-4-yl)-5-(4-(4-methoxyphenoxy)piperidine-1-carbonyl)picolinamide], less than 500 nM. In turn, `N#Cc1ccc(CN2CCC(NC(=O)c3ccc(C(=O)N4CCC(Oc5ccc(NC(=O)CCOCCOCCOCCOCCNC(=O)CCC[C@@H]6SC[C@@H]7NC(=O)N[C@@H]76)cc5)CC4)nc3)CC2)cc1` [Compound 371, N-(1-(4-cyanobenzyl)piperidin-4-yl)-6-(4-(4-(17-oxo-20-((3aS,4S,6aR)-2-oxohexahydro-1H-thieno[3,4-d]imidazol-4-yl)-4,7,10,13-tetraoxa-16-azaicosanamido)phenoxy)piperidine-1-carbonyl)nicotinamide] showed an EC50 of more than 10000 nM. `Cc1ccc(Oc2ccc(NC(=O)c3ccc(C(=O)N4CCN(Cc5ccc(F)cc5)CC4)cn3)cc2)cc1` [Compound 53, 5-(4-(4-fluorobenzyl)piperazine-1-carbonyl)-N-(4-(4-methylphenoxy)phenyl)picolinamide]: the EC50 is less than 500 nM. In turn, `N#Cc1cccc(Oc2ccc(NC(=O)c3ccc(C(=O)N4CCN(Cc5ccc(F)cc5)CC4)cn3)cc2)c1` [Compound 56, N-(4-(3-cyanophenoxy)phenyl)-5-(4-(4-fluorobenzyl)piperazine-1-carbonyl)picolinamide] showed an EC50 of less than 500 nM. In the case of `CS(=O)(=O)c1ccc(OC2CCN(C(=O)c3ccc(C(=O)NC4CCC(Oc5ccc(C#N)cc5)CC4)cn3)CC2)cc1` (centres unmarked) [Compound 398, N-(4-(4-cyanophenoxy)cyclohexyl)-6-(4-(4-(methylsulfonyl)phenoxy)piperidine-1-carbonyl)nicotinamide] it was less than 500 nM; in that of `CN1CCN(c2ccc(NC(=O)c3ccc(C(=O)N4CCN(Cc5ccc(F)cc5)CC4)cn3)cc2)CC1` [Compound 41, 5-(4-(4-fluorobenzyl)piperazine-1-carbonyl)-N-(4-(4-methylpiperazin-1-yl)phenyl)picolinamide], more than 10000 nM; in that of `N#Cc1ccc(CN2CCC(NC(=O)c3ccc(C(=O)N4CCC(C(=O)c5ccc(F)cc5)CC4)cn3)CC2)cc1` [Compound 136, N-(1-(4-cyanobenzyl)piperidin-4-yl)-5-(4-(4-fluorobenzoyl)piperidine-1-carbonyl)picolinamide], less than 500 nM. In the case of `COc1ccc(C(=O)C2CCN(C(=O)c3ccc(C(=O)Nc4ccc(Oc5ccc(C#N)cc5)nc4)cn3)CC2)cc1` [Compound 460, N-(6-(4-cyanophenoxy)pyridin-3-yl)-6-(4-(4-methoxybenzoyl)piperidine-1-carbonyl)nicotinamide] it was less than 500 nM; in that of `CC(=O)c1ccc(Oc2ccc(NC(=O)c3ccc(C(=O)N4CCN(c5ccc(S(C)(=O)=O)cc5)CC4)nc3)cn2)cc1` [Compound 487, N-(6-(4-acetylphenoxy)pyridin-3-yl)-6-(4-(4-(methylsulfonyl)phenyl)piperazine-1-carbonyl)nicotinamide], 1000 to 5000 nM; in that of `N#Cc1ccc(CNC(=O)c2ccc(-c3ccc(C(=O)N4CCN(Cc5ccc(F)cc5)CC4)cn3)cc2)cc1` [Compound 35, (6-(4-(4-cyanobenzylcarbamoyl)phenyl)pyridin-3-yl)(4-(4-fluorobenzyl)piperazin-1-yl)methanone], 500 to 1000 nM.

Regarding `O=C(Nc1ccc(Oc2ccc(F)cc2)nc1)c1ccc(C(=O)N2CCC(Oc3cccc(NC(=O)C4CC4)c3)CC2)nc1` [Compound 433, 6-(4-(3-(cyclopropanecarboxamido)phenoxy)piperidine-1-carbonyl)-N-(6-(4-fluorophenoxy)pyridin-3-yl)nicotinamide], the half-maximal effective concentration (EC50) is less than 500 nM. The figure for `O=C(NC1CCN(Cc2ccccc2)CC1)c1ccc(Nc2ccc(Oc3ccccc3)cc2)cn1` [Compound 113, N-(1-benzylpiperidin-4-yl)-5-(4-phenoxyphenylamino)picolinamide] is 1000 to 5000 nM; for `N#Cc1ccc(CN2CCC(NC(=O)c3ccc(C(=O)N4CC(OCc5ccc(F)cc5)C4)cn3)CC2)cc1` [Compound 307, N-(1-(4-cyanobenzyl)piperidin-4-yl)-5-(3-(4-fluorobenzyloxy)azetidine-1-carbonyl)picolinamide] it is 500 to 1000 nM. The figure for `N#Cc1ccc(CN2CCC(Nc3ccc(C(=O)N4CCN(Cc5ccc(F)cc5)CC4)cn3)CC2)cc1` [Compound 36, (6-(4-(cyanobenzyl)piperidin-4-ylamino)pyridin-3-yl)(4-(4-fluorobenzyl)piperazin-1-yl)methanone] is 500 to 1000 nM; for `O=C(Nc1ccc(Oc2ccc(F)cc2)nc1)c1cnc(C(=O)N2CCC(C(=O)c3ccc(F)cc3F)CC2)cn1` [Compound 206, 5-(4-(2,4-difluorobenzoyl)piperidine-1-carbonyl)-N-(6-(4-fluorophenoxy)pyridin-3-yl)pyrazine-2-carboxamide] it is less than 500 nM. The figure for `N#Cc1ccc(C(=O)N2CCC(NC(=O)c3ccc(C(=O)N4CCN(Cc5ccc(F)cc5)CC4)cn3)CC2)cc1` [Compound 4, N-(1-(4-cyanobenzoyl)piperidin-4-yl)-5-(4-(4-fluorobenzyl)piperazine-1-carbonyl)picolinamide] is 500 to 1000 nM; for `CS(=O)(=O)c1ccc(OC2CCN(C(=O)c3ccc(C(=O)N[C@@H]4CCN(Cc5ccc(C#N)cc5)C[C@H]4F)nc3)CC2)cc1` (relative stereo) [Compound 254, N-((trans)-1-(4-cyanobenzyl)-3-fluoropiperidin-4-yl)-5-(4-(4-(methylsulfonyl)phenoxy)piperidine-1-carbonyl)picolinamide] it is less than 500 nM.

Compound `COc1ccc(-c2ccc(NC(=O)c3ccc(C(=O)N4CCN(Cc5ccc(F)cc5)CC4)cn3)cc2)cc1` [Compound 29, N-(4-(4-methoxyphenyl)phenyl)-5-(4-(4-fluorobenzyl)piperazine-1-carbonyl)picolinamide] gave an EC50 of 500 to 1000 nM. The figure for `COc1ccc(C(=O)C2CCN(C(=O)c3ccc(C(=O)N[C@@H]4CCN(Cc5ccc(N6CCCC6)cc5)C[C@H]4F)cn3)CC2)cc1` (relative stereo) [Compound 352, N-((trans)-3-fluoro-1-(4-(pyrrolidin-1-yl)benzyl)piperidin-4-yl)-6-(4-(4-methoxybenzoyl)piperidine-1-carbonyl)nicotinamide] is less than 500 nM; for `N#Cc1ccc(O[C@H]2CC[C@@H](NC(=O)c3ccc(C(=O)N4CCC(Oc5cccc(NC(=O)C6CC6)c5)CC4)nc3)CC2)cc1` [Compound 434, N-((cis)-4-(4-cyanophenoxy)cyclohexyl)-6-(4-(3-(cyclopropanecarboxamido)phenoxy)piperidine-1-carbonyl)nicotinamide] it is less than 500 nM. The figure for `N#Cc1ccc(CN2CCC(NC(=O)c3ccc(C(=O)N4CCNCC4)cn3)CC2)cc1` [Compound 2, N-(1-(4-cyanobenzyl)piperidin-4-yl)-5-(piperazine-1-carbonyl)picolinamide] is more than 10000 nM; for `CCOC(=O)C(c1ccccc1)N1CCC(NC(=O)c2ccc(C(=O)N3CCN(Cc4ccc(F)cc4)CC3)cn2)CC1` (centres unmarked) [Compound 98, ethyl 2-(4-(5-(4-(4-fluorobenzyl)piperazine-1-carbonyl)picolinamido)piperidin-1-yl)-2-phenylacetate] it is 1000 to 5000 nM. In the case of `COc1ccc(CN2CCC(NC(=O)c3ccc(C(=O)N4CCN(Cc5ccc(C#N)cc5)CC4)cn3)CC2)cc1` [Compound 285, 5-(4-(4-cyanobenzyl)piperazine-1-carbonyl)-N-(1-(4-methoxybenzyl)piperidin-4-yl)picolinamide] it was less than 500 nM.
